Tested on: BCR-ABL+ FL 5.12 p190 cells
Test: cells
Details: Mus musculus, FL5.12, read-out: IC50 of dasatinib without ChNPs
Description: Viability was tested three days after delivery. […] After 24 h, PBS, BIM AAV alone, MCL-1 siRNA alone, mixture of BIM AAV and siRNA, and various ChNPs (Null/Scr, Null/MCL-1, BIM/Scr, BIM/MCL-1 ChNPs) are added to the cells at different BIM AAV and MCL-1 siRNA concentrations. To measure cell viability, the cells maintained with fresh media everyday are pelleted by centrifugation (2000 rpm, 5 min, 4° C.) and resuspended in fresh media. The cells in 90 μL medium then are transferred into a 96-well plate where MTT (5 mg/mL in 10 μL PBS) is subsequently added. After 4 h of incubation at 37° C., the well plate is centrifuged at 2000 rpm and 4° C. for 5 min, and the media is replaced by 100 μL DMSO per well. The relative cell viability is quantified by comparing absorptions at 570 nm using a microplate reader (Synergy H1, Biotek), based on the absorption in the wells containing nontreated cells.

## Cc1nc(Nc2ncc(C(=O)Nc3c(C)cccc3Cl)s2)cc(N2CCN(CCO)CC2)n1 [dasatinib]
  IC50: 1 nM
